Source: ChEMBL document CHEMBL5096180, “Pyrimidine-based EGFR TK inhibitors in targeted cancer therapy” (Eur J Med Chem, 2021)
“And” between values parts separate entries of the source, which are not always exact repeats. Equal entries are not always repeated.

Tests used:
NCI-H1975 [1] = assay: Growth inhibition of human NCI-H1975 cells harbouring EGFR L858R/T790M double mutant; format: functional
NCI-H1975 [2] = assay: Antiproliferative activity against human NCI-H1975 cells assessed as cell growth inhibition incubated for 72 hrs by MTT assay; format: functional, cell-based; conditions: NCI-H1975, 72 h
[3] = molecular target: Epidermal growth factor receptor (Homo sapiens, UniProt P00533, L858R/T790M); assay: Inhibition of EGFR L858R/T790M double mutant (unknown origin) in presence of ATP by ADP-Glo assay
[4] = molecular target: T1, Tyrosine-protein kinase JAK3 (Homo sapiens) (UniProt P52333); assay: Inhibition of JAK3 (unknown origin)
T1 sequence (whole entry): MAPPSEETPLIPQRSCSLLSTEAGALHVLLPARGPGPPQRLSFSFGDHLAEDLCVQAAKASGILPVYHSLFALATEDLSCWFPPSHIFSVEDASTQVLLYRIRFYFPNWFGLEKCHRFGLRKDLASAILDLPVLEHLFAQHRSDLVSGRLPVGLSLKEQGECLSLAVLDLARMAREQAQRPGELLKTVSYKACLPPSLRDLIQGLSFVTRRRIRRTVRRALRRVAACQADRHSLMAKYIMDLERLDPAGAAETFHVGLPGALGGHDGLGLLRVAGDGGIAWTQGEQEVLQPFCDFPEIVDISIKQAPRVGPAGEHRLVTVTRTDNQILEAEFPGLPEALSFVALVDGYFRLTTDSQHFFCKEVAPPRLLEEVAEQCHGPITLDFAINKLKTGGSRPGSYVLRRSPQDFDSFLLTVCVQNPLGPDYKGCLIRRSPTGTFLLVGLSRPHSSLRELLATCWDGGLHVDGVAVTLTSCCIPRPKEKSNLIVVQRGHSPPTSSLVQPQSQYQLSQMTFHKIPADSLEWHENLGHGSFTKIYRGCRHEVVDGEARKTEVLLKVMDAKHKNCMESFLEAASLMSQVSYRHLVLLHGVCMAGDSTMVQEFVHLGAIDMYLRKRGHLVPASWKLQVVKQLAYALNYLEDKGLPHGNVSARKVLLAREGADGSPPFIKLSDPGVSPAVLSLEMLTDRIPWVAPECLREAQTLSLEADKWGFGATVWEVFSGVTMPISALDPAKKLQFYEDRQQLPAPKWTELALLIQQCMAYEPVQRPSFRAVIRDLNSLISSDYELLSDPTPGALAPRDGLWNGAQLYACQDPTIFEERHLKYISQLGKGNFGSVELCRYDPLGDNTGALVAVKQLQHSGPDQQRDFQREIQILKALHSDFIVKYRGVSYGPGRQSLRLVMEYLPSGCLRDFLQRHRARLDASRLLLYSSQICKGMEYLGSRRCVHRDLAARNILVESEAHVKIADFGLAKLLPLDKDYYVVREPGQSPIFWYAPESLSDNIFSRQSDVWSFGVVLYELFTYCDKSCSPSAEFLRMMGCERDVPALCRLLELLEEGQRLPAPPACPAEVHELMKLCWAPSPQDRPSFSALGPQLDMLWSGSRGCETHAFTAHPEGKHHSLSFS

HepG2 = assay: Anticancer activity against human HepG2 cells; format: functional, cell-based
HCT-116 = assay: Anticancer activity against human HCT-116 cells; format: functional, cell-based
[5] = molecular target: T2, Epidermal growth factor receptor (Homo sapiens, UniProt P00533); assay: Inhibition of EGFR (unknown origin) at 50 uM relative to control
[6] = molecular target: T2, Epidermal growth factor receptor; assay: Inhibition of EGFR (unknown origin) at 100 uM relative to control
PC-3 = assay: Anticancer activity against human PC-3 cells; format: functional, cell-based
MCF7 [7] = assay: Potency index,ratio of test compound IC50 to Doxorubicin IC50 for antiproliferative activity against human MCF7 cells incubated for 48 hrs by MTT assay; format: functional
MCF7 [8] = assay: Potency index,ratio of test compound IC50 to Erlotinib IC50 for antiproliferative activity against human MCF7 cells incubated for 48 hrs by MTT assay; format: functional
[9] = molecular target: T2, Epidermal growth factor receptor; assay: Inhibition of recombinant EGFR (unknown origin) using TMB as substrate incubated for 3 hrs in presence of ATP by ELISA
MCF7 [10] = assay: Anticancer activity against human MCF7 cells incubated for 48 hrs by MTT assay; format: functional, cell-based; conditions: MCF7, 48 h
[11] = molecular target: Epidermal growth factor receptor (Homo sapiens, UniProt P00533, T790M); assay: Inhibition of EGFR T790M mutant (unknown origin)
NCI-H460 = assay: Anticancer activity against human NCI-H460 cells assessed as cell viability incubated for 24 hrs by MTT assay; format: functional, cell-based
ACHN = assay: Anticancer activity against human ACHN cells assessed as cell viability incubated for 24 hrs by MTT assay; format: functional, cell-based
[12] = molecular target: Receptor tyrosine-protein kinase erbB-2 (Homo sapiens, UniProt P04626); assay: Inhibition of ErbB2 (unknown origin) pre-incubated for 5 mins followed by substrate addition and measured after 30 mins in presence of ATP by microtitre plate reader analysis
OVCAR-4 = assay: Anticancer activity against human OVCAR-4 cells assessed as cell viability incubated for 24 hrs by MTT assay; format: functional, cell-based; conditions: OVCAR-4, 24 h
NCI-H1975 [13] = assay: Antiproliferative activity against human NCI-H1975 assessed as cell growth inhibition; format: functional, cell-based
HCC827 = assay: Antiproliferative activity against human HCC827 assessed as cell growth inhibition; format: functional, cell-based
EKVX = assay: Anticancer activity against human EKVX assessed as cell growth inhibition at 10 uM incubated for 48 hrs relative to control; format: functional; conditions: pooled result: one value given for 8 cell lines, strains, targets or settings
[14] = Inhibition of recombinant N-terminal GST-tagged human HER2 expressed in sf9 insect cells using poly(Glu, Tyr) sodium salt (4:1, Glu:Tyr) as a substrate measured after 40 mins by Kinase-Glo reagent based luminescence analysis
[15] = molecular target: T2, Epidermal growth factor receptor; assay: Inhibition of recombinant C-terminal His-tagged/N-terminal GST-tagged human EGFR expressed in sf9 insect cells using poly(Glu, Tyr) sodium salt (4:1, Glu:Tyr) as a substrate measured after 40 mins by Kinase-Glo reagent based luminescence analysis
BaF3 [16] = assay: Antiproliferative activity against mouse BAF3 cells harboring EGFR 19D/T790M/C797S triple mutant; format: functional, cell-based
BaF3 [17] = assay: Antiproliferative activity against mouse BAF3 cells harboring EGFR L858R/T790M/C797S triple mutant; format: functional, cell-based
[18] = tested on: Epidermal growth factor receptor (Homo sapiens), P00533 [L858R]; assay: Inhibition of EGFR L858R mutant (unknown origin) relative to control; conditions: concentration not given here
[19] = tested on: Epidermal growth factor receptor (Homo sapiens), P00533 [L858R,T790M]; assay: Inhibition of EGFR T790M/L858R double mutant (unknown origin) relative to control
[20] = molecular target: Epidermal growth factor receptor (Homo sapiens, UniProt P00533, C797S/L858R/T790M); assay: Inhibition of EGFR L858R/T790M/C797S triple mutant (unknown origin)

T2 sequence (P00533 whole entry): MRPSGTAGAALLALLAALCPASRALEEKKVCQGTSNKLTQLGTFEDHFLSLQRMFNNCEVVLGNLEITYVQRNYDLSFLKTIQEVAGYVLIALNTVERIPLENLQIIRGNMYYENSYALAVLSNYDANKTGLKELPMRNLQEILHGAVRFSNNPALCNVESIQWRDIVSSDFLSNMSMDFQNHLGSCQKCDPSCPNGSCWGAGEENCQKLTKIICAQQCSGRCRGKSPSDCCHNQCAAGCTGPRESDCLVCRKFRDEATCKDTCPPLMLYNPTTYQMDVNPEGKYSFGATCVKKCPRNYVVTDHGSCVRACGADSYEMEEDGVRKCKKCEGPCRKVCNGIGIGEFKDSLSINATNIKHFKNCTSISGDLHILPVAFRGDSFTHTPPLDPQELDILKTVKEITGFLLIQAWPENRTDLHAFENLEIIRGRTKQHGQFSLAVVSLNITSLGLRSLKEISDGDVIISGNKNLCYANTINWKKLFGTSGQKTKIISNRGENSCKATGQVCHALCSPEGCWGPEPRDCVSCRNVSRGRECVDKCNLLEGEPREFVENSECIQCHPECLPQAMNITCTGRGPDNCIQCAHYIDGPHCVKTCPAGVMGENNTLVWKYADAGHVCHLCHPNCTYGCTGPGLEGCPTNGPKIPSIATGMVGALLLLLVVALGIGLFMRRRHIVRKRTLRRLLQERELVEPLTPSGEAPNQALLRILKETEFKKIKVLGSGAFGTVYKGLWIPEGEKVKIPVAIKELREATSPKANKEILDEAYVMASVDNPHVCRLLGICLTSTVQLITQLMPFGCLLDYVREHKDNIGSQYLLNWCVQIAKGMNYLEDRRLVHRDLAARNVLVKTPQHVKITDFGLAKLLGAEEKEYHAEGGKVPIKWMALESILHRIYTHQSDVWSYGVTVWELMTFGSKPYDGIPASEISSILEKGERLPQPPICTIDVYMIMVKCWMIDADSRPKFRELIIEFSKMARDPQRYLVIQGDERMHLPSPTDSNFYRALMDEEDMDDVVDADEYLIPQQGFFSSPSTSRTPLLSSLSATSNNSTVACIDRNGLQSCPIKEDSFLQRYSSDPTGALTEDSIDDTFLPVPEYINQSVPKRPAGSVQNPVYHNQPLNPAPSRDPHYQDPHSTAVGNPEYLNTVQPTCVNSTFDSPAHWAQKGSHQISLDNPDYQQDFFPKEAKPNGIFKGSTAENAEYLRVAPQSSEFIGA
Epidermal growth factor receptor (Homo sapiens), P00533 [L858R,T790M], sequence (P00533 whole entry T790M/L858R, looked up): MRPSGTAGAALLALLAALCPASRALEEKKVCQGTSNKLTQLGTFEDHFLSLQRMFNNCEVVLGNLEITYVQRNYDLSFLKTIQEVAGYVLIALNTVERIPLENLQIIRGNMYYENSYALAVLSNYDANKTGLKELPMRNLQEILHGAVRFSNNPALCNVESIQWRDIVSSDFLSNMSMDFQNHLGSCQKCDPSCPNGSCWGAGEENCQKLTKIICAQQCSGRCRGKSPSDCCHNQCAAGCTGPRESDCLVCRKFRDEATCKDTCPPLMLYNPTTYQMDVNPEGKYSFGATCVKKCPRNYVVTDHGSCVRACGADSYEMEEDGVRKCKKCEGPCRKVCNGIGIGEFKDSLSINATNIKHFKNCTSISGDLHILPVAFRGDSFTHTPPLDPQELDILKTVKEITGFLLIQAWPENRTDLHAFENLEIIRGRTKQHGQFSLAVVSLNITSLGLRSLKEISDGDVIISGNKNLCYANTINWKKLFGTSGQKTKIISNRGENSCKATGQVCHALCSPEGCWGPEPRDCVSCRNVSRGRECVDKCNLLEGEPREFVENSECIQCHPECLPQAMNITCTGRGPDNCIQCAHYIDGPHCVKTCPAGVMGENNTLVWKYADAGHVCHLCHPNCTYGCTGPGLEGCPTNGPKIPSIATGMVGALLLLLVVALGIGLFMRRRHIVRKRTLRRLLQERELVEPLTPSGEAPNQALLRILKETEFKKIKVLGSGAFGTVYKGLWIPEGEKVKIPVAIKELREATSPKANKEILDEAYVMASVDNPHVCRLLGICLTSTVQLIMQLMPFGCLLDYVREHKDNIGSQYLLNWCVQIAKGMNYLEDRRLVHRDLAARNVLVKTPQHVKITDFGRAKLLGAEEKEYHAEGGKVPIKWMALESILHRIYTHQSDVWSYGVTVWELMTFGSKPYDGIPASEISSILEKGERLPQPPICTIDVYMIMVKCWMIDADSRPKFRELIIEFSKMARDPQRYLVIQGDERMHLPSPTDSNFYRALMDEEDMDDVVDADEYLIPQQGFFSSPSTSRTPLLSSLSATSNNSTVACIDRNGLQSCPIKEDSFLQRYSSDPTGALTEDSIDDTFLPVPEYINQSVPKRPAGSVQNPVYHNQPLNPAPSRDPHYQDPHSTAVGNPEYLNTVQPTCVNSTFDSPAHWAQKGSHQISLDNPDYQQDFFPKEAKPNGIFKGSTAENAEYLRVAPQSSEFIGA
Epidermal growth factor receptor (Homo sapiens, UniProt P00533, L858R/T790M), sequence (P00533 25-1210 T790M/L858R limits assumed): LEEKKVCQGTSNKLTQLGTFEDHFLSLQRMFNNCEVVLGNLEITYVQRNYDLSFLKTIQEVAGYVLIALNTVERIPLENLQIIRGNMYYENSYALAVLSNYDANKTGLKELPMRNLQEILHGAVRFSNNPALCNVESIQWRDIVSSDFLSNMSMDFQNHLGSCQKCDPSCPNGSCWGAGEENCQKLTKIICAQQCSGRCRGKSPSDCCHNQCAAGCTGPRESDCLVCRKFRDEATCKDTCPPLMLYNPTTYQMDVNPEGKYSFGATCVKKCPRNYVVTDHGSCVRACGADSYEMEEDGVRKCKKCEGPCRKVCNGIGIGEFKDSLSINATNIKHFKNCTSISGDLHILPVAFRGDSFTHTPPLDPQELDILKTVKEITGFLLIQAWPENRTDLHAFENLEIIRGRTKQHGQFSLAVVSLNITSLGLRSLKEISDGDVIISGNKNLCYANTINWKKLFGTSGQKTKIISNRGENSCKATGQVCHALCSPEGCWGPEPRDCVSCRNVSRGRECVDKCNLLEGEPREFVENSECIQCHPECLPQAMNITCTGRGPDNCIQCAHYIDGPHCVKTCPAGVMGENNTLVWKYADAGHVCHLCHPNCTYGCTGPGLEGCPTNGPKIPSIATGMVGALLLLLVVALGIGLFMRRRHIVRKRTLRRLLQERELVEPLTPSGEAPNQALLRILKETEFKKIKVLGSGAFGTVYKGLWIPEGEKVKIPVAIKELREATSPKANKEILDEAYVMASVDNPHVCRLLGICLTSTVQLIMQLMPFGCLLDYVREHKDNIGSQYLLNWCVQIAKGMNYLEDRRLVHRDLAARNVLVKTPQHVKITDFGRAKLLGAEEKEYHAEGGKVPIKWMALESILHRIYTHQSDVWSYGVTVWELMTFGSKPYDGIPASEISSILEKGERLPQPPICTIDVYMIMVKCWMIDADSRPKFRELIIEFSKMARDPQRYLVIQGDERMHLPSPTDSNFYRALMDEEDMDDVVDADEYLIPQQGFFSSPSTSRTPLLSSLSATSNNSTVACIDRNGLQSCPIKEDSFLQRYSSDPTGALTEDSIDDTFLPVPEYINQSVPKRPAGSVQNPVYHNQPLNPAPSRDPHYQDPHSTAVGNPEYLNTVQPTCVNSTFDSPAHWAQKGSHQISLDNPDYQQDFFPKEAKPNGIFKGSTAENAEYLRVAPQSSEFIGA
Epidermal growth factor receptor (Homo sapiens, UniProt P00533, T790M), sequence (P00533 25-1210 T790M limits assumed): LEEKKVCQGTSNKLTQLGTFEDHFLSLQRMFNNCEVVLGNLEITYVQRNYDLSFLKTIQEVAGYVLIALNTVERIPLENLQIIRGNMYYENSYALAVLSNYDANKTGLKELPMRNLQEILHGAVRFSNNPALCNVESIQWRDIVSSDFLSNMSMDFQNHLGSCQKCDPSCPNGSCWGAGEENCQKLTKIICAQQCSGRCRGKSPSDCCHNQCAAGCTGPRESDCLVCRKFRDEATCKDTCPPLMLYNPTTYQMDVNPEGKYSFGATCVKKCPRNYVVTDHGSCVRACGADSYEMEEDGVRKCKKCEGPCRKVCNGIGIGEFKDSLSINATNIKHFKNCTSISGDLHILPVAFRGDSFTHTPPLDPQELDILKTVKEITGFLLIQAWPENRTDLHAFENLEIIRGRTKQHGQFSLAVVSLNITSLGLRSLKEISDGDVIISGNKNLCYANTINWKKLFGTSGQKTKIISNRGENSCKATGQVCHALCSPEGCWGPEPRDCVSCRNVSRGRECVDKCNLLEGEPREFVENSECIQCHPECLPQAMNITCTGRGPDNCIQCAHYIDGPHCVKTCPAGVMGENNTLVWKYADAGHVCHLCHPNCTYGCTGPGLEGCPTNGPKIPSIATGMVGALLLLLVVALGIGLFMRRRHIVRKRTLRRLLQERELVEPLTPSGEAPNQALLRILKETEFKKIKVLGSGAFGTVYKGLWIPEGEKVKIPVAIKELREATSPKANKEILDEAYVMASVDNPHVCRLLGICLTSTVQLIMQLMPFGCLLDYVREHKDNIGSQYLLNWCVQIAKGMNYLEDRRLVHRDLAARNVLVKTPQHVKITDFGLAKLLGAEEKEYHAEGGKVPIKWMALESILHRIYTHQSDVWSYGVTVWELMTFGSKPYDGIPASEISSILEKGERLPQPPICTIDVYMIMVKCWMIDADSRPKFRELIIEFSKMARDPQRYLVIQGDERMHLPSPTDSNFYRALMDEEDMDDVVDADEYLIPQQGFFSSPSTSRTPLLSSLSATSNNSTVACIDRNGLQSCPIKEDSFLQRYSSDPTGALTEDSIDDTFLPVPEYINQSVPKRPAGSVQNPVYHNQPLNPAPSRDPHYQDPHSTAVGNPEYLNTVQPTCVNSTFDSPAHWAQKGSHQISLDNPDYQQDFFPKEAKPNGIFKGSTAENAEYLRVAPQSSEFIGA

Compound `C=CC(=O)N1CCCC(n2nc(-c3cccc4ccccc34)c3c(N)ncnc32)C1` (centres undefined) has a GI50 (NCI-H1975 [1]) of 0.49 µM.

Compound `C=CC(=O)Nc1cccc(Nc2nc(Nc3ccc(SCCCN4CCOCC4)cc3)ncc2Cl)c1` has an IC50 (NCI-H1975 [2]) of 0.074 µM and an IC50 [3] of 0.0275 µM.

With `CC#CC1=Nc2cc(Nc3nccc(-c4cn(C)c5ccccc45)n3)ccc2C(C)(C)O1` the IC50 [4] was 0.06 µM.

For `Cc1ccc(-c2cc(-c3ccc(Cl)cc3)nc3nc(-n4[nH]c(C)cc4=O)[nH]c(=O)c23)cc1`, the IC50 (HepG2) was 0.3 µM, the IC50 (HCT-116) was 7 µM and the inhibition [5] was 81%. It also gave an inhibition [6] of 86% and an IC50 (PC-3) of 6.6 µM.

With `C=CC(=O)Nc1cccc(Oc2nc(Nc3ccc(OC)cc3)nc3c2CSCC3)c1` the “Ratio IC50” value (MCF7 [7]) was 4.64, the “Ratio IC50” value (MCF7 [8]) was 1.73 and the IC50 [9] was 0.028 µM. The IC50 (MCF7 [10]) was 0.66 µM.

`C=CC(=O)Nc1cccc(Nc2nc(Nc3ccc(SCC(=O)N4CCOCC4)cc3)ncc2Cl)c1` gave an IC50 [3] of 0.0091 µM.

With `CC#CC(=O)Nc1ccc(Nc2nccc(-c3cn(C)c4ccccc34)n2)cc1` the IC50 [11] was 0.22 µM.

With `Cc1nn(-c2ccc(F)cc2)c2c(Nc3ccc(F)c(Cl)c3)ncnc12` the IC50 (NCI-H460) was 1.74 µM and 4.44 µM, the IC50 (ACHN) was 5.53 µM and the IC50 [12] was 0.25 µM. For the same compound, the IC50 (OVCAR-4) was 1.74 µM.

`CN(C)C1CCN(c2ccc(Nc3cc4c(N5CCC(CO)CC5)nc(Nc5ccc(F)cc5)nc4cn3)nc2)CC1` gave an IC50 (NCI-H1975 [13]) of 0.04 µM and an IC50 (HCC827) of 0.04 µM.

`Fc1cccc(COc2ccc(Nc3ncnc4sc5c(c34)CCCC5)cc2Cl)c1` gave an inhibition at 10 µM (EKVX) of 42%, an IC50 [14] of 0.5 µM and an IC50 [15] of 0.2 µM.

For `CCC(=O)NC1CCC(N2C(=O)N(c3ccccc3Cl)Cc3cnc(Nc4ccc(N5CCN(C)CC5)c(C)c4)nc32)CC1` (centres undefined), the IC50 (BaF3 [16]) was 0.31 µM and the IC50 (BaF3 [17]) was 0.29 µM.

`CCOC(=O)c1cnc(NC(N)=S)nc1C` gave an inhibition [18] of 62% and an inhibition [19] of 62%.

In the case of `C=CC(=O)N1CCCC(n2nc(-c3ccc4ccccc4c3)c3c(N)ncnc32)C1` (centres undefined), the GI50 (NCI-H1975 [1]) is reported as 0.14 µM and the IC50 [20] is reported as 0.088 µM.

`C=CC(=O)N1CCCC(n2nc(-c3cn(C)c4ccccc34)c3c(N)ncnc32)C1` (centres undefined) gave a GI50 (NCI-H1975 [1]) of 0.21 µM.

With `C=CC(=O)Nc1ccc(Nc2nccc(-c3cn(C)c4ccccc34)n2)cc1` the IC50 [11] was 0.18 µM.

`CCOC(=O)c1cnc(NC(N)=S)[nH]c1=O` gave an inhibition [18] of 62% and an inhibition [19] of 62%.
